Consider three compounds from patent US11071731B2, “Allosteric modulators of the mu opioid receptor” (Chiromics, LLC, priority 2017, dated 2021).

Data set [1] deals with T1, PK-tagged delta opioid receptors (U20S-DOR1) (Homo sapiens, UniProt P41143).
T1 construct: host or cells: U20S Path Hunter cells
Kind of data set: β-arrestin recruitment in U20S PathHunter cells, PAM mode with EC20 DADLE. Format: cell-based. The settings on record: EC20 (0.8 nM) DADLE; concentrations up to 25 μM. On the technique in general: Activated receptors often draw arrestin, which recruitment assays turn into a signal.

Data set [2] concerns the target T2, mu opioid receptor (MOR) (Homo sapiens, UniProt P35372). Kind of data set: PathHunter β-arrestin recruitment assay, PAM mode with EC20 endomorphin-1. The data set is classed as cell-based. The gist of the method: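 β-Arrestin recruitment to the receptor was tracked by chemiluminescent β-galactosidase activity from complementing fragments (ED on receptor, EA on β-arrestin). Per-compound outputs were EC50 and percent maximal response.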

For data set [3], the target named is T3, PK-tagged kappa opioid receptors (U20S-KOR1) (Homo sapiens, UniProt P41145).
T3 construct: host or cells: U20S Path Hunter cells
Kind of data set: β-arrestin recruitment in U20S PathHunter cells, PAM mode with EC20 Dynorphin A. The conditions noted are these: EC20 (0.8 nM) Dynorphin A; concentrations up to 25 μM. The data set is classed as cell-based.

Data set [4] concerns the target T2, mu opioid receptor (MOR). Briefly: Hit Hunter cAMP signaling assay (adenylyl cyclase inhibition), PAM mode with EC20 endomorphin-1. The data set is classed as cell-based.
The target of data set [5] is T4, MOR (Homo sapiens, UniProt P35372). Briefly: cell-based. The settings on record: EC20 Oxycodone agonism of MOR.
Data set [6] concerns the target T4, MOR. Briefly: cell-based. The conditions noted are these: EC20 morphine agonism of MOR.
Data set [7] addresses T4, MOR. Format: cell-based. The settings on record: β-arrestin; EC20 EM2 agonism of MOR.
Data set [8] deals with T4, MOR. Kind of data set: cell-based. The settings on record: EC20 Oxycodone agonism of MOR. The source holds these as a separate data set.
Data set [9] has as its target T4, MOR. Format: cell-based. The settings on record: cAMP; EC20 EM2 agonism of MOR.
Data set [10] has as its target T4, MOR. Kind of data set: cell-based. The conditions noted are these: EC20 morphine agonism of MOR. This is another data set of the same source.
The test system of data set [11] is Sprague-Dawley rats. Kind of data set: Respiratory depression: blood oxygen saturation by pulse oximetry. The data set is classed as in vivo. The settings on record: subcutaneous; morphine 10 mg/kg, compound 9 15, 30, 60 mg/kg; 90 minutes. The method, then:
Respiratory depression is a significant side effect associated with opioid treatment of acute and chronic pain. Drug-related overdose deaths are often a function of the respiratory depression which occurs with opioid use. Efforts to generate analgesics that dissociate pain relief from side effects are critical to the advancement of public health. […] […].
Blood oxygen saturation was assessed in awake rats with the MouseOx oximeter system (Starr Life Sciences, Holliston, Mass.). Up to 5 samples were measured every 5 minutes for 15 minutes prior to dosing and 90 minutes after dosing. Each animal was habituated to the device over several days prior to the study.

The subject of data set [12] is Sprague-Dawley rats. Briefly: Gastrointestinal transit of charcoal bolus and stomach contents. The settings on record: morphine 10 mg/kg, compound 9 15, 30, 60 mg/kg.
The mark [13] stands for this setting: maximal response for β-arrestin recruitment.
Where [14] appears, read: β-arrestin recruitment, read-out: β-arr. EC50.
[15] abbreviates: maximal response for adenylyl cyclase inhibition.

The structures appear in SMILES notation. Where two headings read alike, the source gives them in different places. Some results are limits rather than exact numbers.

T4 sequence (P35372 whole entry): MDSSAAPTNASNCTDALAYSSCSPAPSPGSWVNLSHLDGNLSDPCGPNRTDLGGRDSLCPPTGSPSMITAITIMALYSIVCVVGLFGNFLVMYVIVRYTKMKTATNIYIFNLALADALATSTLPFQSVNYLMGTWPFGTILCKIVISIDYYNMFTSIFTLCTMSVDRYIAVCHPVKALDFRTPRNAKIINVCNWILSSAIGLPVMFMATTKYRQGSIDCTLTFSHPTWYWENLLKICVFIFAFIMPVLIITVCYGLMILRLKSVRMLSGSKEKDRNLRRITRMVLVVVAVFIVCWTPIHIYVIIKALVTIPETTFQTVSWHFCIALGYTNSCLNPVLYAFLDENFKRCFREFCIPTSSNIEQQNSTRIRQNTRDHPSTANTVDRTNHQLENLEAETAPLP
T2 sequence (P35372 whole entry, the tested form may be a part): as the sequence (P35372 whole entry) above

For `O=S(=O)(c1ccc(Cl)cc1)N1CCCCC1c1ccc(F)c(Br)c1` (racemic) [compound 60], in data set [1], the “positive allosteric effect on DOR signaling” value was “no significant positive allosteric effect”. Also, the “β-arr Max. Resp.” value at mu opioid receptor (MOR) [2] (setting [13]) was “F (F represents a maximal response of > 60%)”. Further, on mu opioid receptor (MOR) [2] (β-arrestin recruitment, activity switching by MOR PAMs), the “β-arrestin Max Response” value is reported as “F (F represents a maximal response of >60%)”. Besides, the EC50 was greater than 2100 nM at mu opioid receptor (MOR) [2] (β-arrestin recruitment, activity switching by MOR PAMs, read-out: β-arrestin EC50); less than 700 nM at mu opioid receptor (MOR) [2] (setting [14]); greater than 2100 nM on mu opioid receptor (MOR) [4] (adenylyl cyclase inhibition, activity switching by MOR PAMs, read-out: cAMP EC50); less than 700 nM on mu opioid receptor (MOR) [4] (adenylyl cyclase inhibition, read-out: cAMP EC50). The “positive allosteric effect on KOR signaling” value in data set [3] is “no significant positive allosteric effect”. For the same compound, the “cAMP Max Resp.” value on mu opioid receptor (MOR) [4] (adenylyl cyclase inhibition, activity switching by MOR PAMs) is on record as “D (D represents a maximal response of < 40%)”. The “cAMP Max. Resp.” value at mu opioid receptor (MOR) [4] (setting [15]) is “E (E represents a maximal response of 40-60%)”.
Consider `Fc1ccc(Cl)cc1CN1CCCCC1c1cccc(C(F)(F)F)n1` (centres unmarked) [compound 2], for which the EC50 at MOR [5] (RC50, β-arrestin) is 13600 nM; at MOR [6] (RC50, cAMP), greater than 25000 nM; at MOR [8] (RC50, cAMP), greater than 25000 nM; at mu opioid receptor (MOR) [2] (β-arrestin recruitment, Table 3, read-out: β-arr. EC50) it was 155 nM; on mu opioid receptor (MOR) [2] (setting [14]), less than 700 nM; on mu opioid receptor (MOR) [2] (β-arrestin, EC20 EM-1 agonism of MOR, read-out: RC50 (the source's name)), 360 nM. The EC50 was 9590 nM at MOR [10] (RC50, β-arrestin); 570 nM at mu opioid receptor (MOR) [4] (RC50, cAMP, EC20 EM-1 agonism of MOR); 170 nM at mu opioid receptor (MOR) [4] (cAMP EC50 (nM), adenylyl cyclase inhibition, Table 3); less than 700 nM on mu opioid receptor (MOR) [4] (cAMP EC50, adenylyl cyclase inhibition). The “Max. Response” value is listed as 126 on MOR [5] (β-arrestin); 26 at MOR [6] (cAMP); 97 at MOR [7]; 5 on MOR [8] (cAMP); 83 on MOR [9]; 143 on mu opioid receptor (MOR) [2] (β-arrestin, EC20 EM-1 agonism of MOR). Also, the “Max. Response” value at MOR [10] (β-arrestin) is given as 156; on mu opioid receptor (MOR) [4] (cAMP, EC20 EM-1 agonism of MOR), 81. Besides, the “allosteric activity for β-arrestin recruitment” value on mu opioid receptor (MOR) [2] (EC20 endomorphin-1 concentration of 4.5 nM) is given as “high positive allosteric activity”. Further, the “signaling preference β-arrestin vs cAMP” value on mu opioid receptor (MOR) [2] (comparison of β-arrestin and cAMP assays) is “roughly equivalent signaling for β-arrestin and cAMP”. Also, the “β-arr Max. Resp.” value at mu opioid receptor (MOR) [2] (setting [13]) is “F (F represents a maximal response of > 60%)”. Besides, the “β-arr. Max Resp.” value at mu opioid receptor (MOR) [2] (maximal response for β-arrestin recruitment, Table 3) came out at 72. For the same compound, the “allosteric activity for cAMP signaling” value at mu opioid receptor (MOR) [4] (EC20 endomorphin-1 concentration of 0.45 nM) is listed as “high positive allosteric activity”. At mu opioid receptor (MOR) [4] (setting [15]), the “cAMP Max. Resp.” value was “F (F represents a maximal response of > 60%)”. In addition, the “cAMP Max Resp.” value on mu opioid receptor (MOR) [4] (maximal response for adenylyl cyclase inhibition, Table 3) worked out at 85.
In the case of `CN1CC[C@]23c4c5ccc(O)c4O[C@H]2[C@@H](O)C=C[C@H]3[C@H]1C5` [morphine, reference compound], in the data set with Sprague-Dawley rats [11], the “oxygen saturation / respiratory depression” value is given as “significant reduction in oxygen saturation”. Further, the “stomach weight” value with Sprague-Dawley rats [12] (20 minutes after charcoal) is on record as “increased”. The “GI transit” value with Sprague-Dawley rats [12] (subcutaneous 1 hour before charcoal) is “significantly decreased”.
